Measured values published in patent US20130029970A1 (priority 2009, published 2013).

Assays:
human CB1 (hCB1) = biological target: T1, human CB1 (hCB1) (Homo sapiens, UniProt P21554); test: 35S GTPγS binding assay, hCB1 agonist; type: biochemical; details: GTPγS agonist, HEK-293 membranes; read-out: hCB1 EC50 (GTPyS ag)
T1 construct: (cDNA clone) CNR01L000

human CB2 receptors = biological target: T2, human CB2 receptors (Homo sapiens, UniProt P34972); test: cAMP assay in HEK-293 cells, hCB2 agonist; type: cell-based; details: inhibition of forskolin-stimulated cAMP, HEK-293 cells; for EC50: read-out: hCB2 EC50 (cAMP ag)
T2 construct: (cDNA clone) CNR0200000
Procedure, shortened: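 HEK-293 cells stably expressing human CB2, suspended at 1,500,000 cells/mL in HBSS with 10 mM HEPES and 0.1% fatty-acid-free BSA, exposed to test compound plus forskolin (90 uM in the 3× compound solution) for 30 min at 37° C.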

human CB1 receptors = biological target: T3, human CB1 receptors (Homo sapiens, UniProt P21554); test: cAMP assay in HEK-293 cells, hCB1 agonist; type: cell-based; details: inhibition of forskolin-stimulated cAMP, HEK-293 cells; for EC50: read-out: hCB1 EC50 (cAMP ag)
T3 construct: (cDNA clone) CNR01L000
Procedure, shortened: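 Stable hCB1 HEK-293 cells suspended in HBSS with 10 mM HEPES and 0.1% fatty acid-free BSA, incubated 30 min at 37° C. with compound plus forskolin (90 uM in the 3× compound solution). Lysed cAMP measured by enzyme-fragment kit; EC50 = 50% inhibition of forskolin-stimulated cAMP (forskolin maximum = 100%), sigmoidal fit.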

T2 sequence (P34972 whole entry): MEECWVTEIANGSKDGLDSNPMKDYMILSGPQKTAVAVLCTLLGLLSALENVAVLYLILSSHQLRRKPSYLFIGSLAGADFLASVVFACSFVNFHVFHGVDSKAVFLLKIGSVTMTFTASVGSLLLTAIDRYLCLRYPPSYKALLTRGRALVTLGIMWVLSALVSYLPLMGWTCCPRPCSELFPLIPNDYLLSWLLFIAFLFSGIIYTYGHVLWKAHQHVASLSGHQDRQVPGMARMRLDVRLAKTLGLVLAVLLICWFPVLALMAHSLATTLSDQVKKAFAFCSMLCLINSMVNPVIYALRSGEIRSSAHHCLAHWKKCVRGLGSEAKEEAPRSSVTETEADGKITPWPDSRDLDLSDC
T1 sequence (P21554 whole entry): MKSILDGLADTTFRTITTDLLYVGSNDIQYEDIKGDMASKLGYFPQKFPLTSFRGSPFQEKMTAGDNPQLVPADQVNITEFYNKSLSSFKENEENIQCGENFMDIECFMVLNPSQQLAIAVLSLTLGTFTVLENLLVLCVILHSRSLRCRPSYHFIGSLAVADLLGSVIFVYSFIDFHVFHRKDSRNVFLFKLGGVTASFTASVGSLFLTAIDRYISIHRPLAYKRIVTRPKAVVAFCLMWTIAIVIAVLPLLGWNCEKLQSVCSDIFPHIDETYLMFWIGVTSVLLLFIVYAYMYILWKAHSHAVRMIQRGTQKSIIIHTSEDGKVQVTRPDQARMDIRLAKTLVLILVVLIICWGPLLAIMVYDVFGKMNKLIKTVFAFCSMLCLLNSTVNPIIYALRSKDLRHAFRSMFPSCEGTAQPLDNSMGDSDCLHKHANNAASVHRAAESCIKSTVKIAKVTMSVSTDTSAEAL
T3 sequence (P21554 whole entry): as above

SMILES | EC50 (human CB1 (hCB1)) [nM] | EC50 (human CB2 receptors) [nM] | hCB1 EC50 (cAMP ag, nM) (human CB1 receptors) | hCB2 EC50 (cAMP ag, nM) (human CB2 receptors) | EC50 (human CB1 receptors) [nM]
Cc1cc2cc(C(=O)c3cccc(Cl)c3Cl)sc2n1CCc1ccccc1 [Compound 30, (2,3-Dichlorophenyl)(5-methyl-6-phenethyl-6H-thieno[2,3-b]pyrrol-2-yl)methanone] | 100 to 1000 | < 100 | NS (NS means “Not Significant,” which means less than 30% agonist activity when compared to the positive control.) |  | 
Cc1cc2cc(C(=O)c3cccc(Cl)c3Cl)sc2n1CCN1CCN(C)CC1 [Compound 33, (2,3-Dichlorophenyl)(5-methyl-6-(2-(4-methylpiperazin-1-yl)ethyl)-6H-thieno[2,3-b]pyrrol-2-yl)methanone] | < 100 |  | NS (NS means “Not Significant,” which means less than 30% agonist activity when compared to the positive control.) | NS (NS means “Not Significant,” which means less than 30% agonist activity when compared to the positive control.) | 
Cc1cc2cc(C(=O)c3cccc(Cl)c3Cl)sc2n1S(=O)(=O)N1CCOCC1 [Compound 45, (2,3-Dichlorophenyl)(5-methyl-6-(morpholinosulfonyl)-6H-thieno[2,3-b]pyrrol-2-yl)methanone] | 100 to 1000 | < 100 | NS (NS means “Not Significant,” which means less than 30% agonist activity when compared to the positive control.) |  | 
Cc1cc2cc(C(=O)c3cccc(Cl)c3Cl)sc2n1S(=O)(=O)CC1CCOCC1 [Compound 46, (2,3-Dichlorophenyl)(5-methyl-6-((tetrahydro-2H-pyran-4-yl)methylsulfonyl)-6H-thieno[2,3-b]pyrrol-2-yl)methanone] | < 100 | < 100 |  |  | < 100
COc1ccc(C(=O)c2cc3cc(C)n(S(=O)(=O)N4CCOCC4)c3s2)cc1 [Compound 53, (4-methoxyphenyl)(5-methyl-6-(morpholinosulfonyl)-6H-thieno[2,3-b]pyrrol-2-yl)methanone] | 100 to 1000 | < 100 |  |  | < 100
COc1ccc(C(=O)c2cc3cc(C)n(S(=O)(=O)CC4CCOCC4)c3s2)cc1 [Compound 57, (4-Methoxyphenyl)(5-methyl-6-((tetrahydro-2H-pyran-4-yl)methylsulfonyl)-6H-thieno[2,3-b]pyrrol-2-yl)methanone] | < 100 | < 100 |  |  | < 100
COc1ccc(C(=O)c2cc3cc(C)n(CC4CCOCC4)c3s2)cc1 [Compound 62, (4-Methoxyphenyl)(5-methyl-6-((tetrahydro-2H-pyran-4-yl)methyl)-6H-thieno[2,3-b]pyrrol-2-yl)methanone] | 100 to 1000 | < 100 |  |  | 100 to 1000
COc1ccc(C(=O)c2cc3cc(C)n(CCN4CCCCC4)c3s2)cc1 [Compound 78, (4-Methoxyphenyl)(5-methyl-6-(2-(piperidin-1-yl)ethyl)-6H-thieno[2,3-b]pyrrol-2-yl)methanone] | < 100 | < 100 |  |  | 1000 to 10000
COc1ccc(C(=O)c2cc3cc(C)n(CCC4CCOCC4)c3s2)cc1 [Compound 82, (4-Methoxyphenyl)(5-methyl-6-(2-(tetrahydro-2H-pyran-4-yl)ethyl)-6H-thieno[2,3-b]pyrrol-2-yl)methanone] | 100 to 1000 | < 100 |  |  | 100 to 1000
COc1ccc(C(=O)c2cc3cc(C)n(CCN4CCOCC4)c3s2)c(C(F)(F)F)c1 [Compound 119, (4-Methoxy-2-(trifluoromethyl)phenyl)(5-methyl-6-(2-morpholinoethyl)-6H-thieno[2,3-b]pyrrol-2-yl)methanone] | 100 to 1000 | < 100 |  |  | 100 to 1000
COc1ccc(C(=O)c2cc3cc(C)n(CCN4CCOCC4)c3s2)c(OC)c1 [Compound 120, (2,4-Dimethoxyphenyl)(5-methyl-6-(2-morpholinoethyl)-6H-thieno[2,3-b]pyrrol-2-yl)methanone] | 100 to 1000 | < 100 |  |  | 100 to 1000
CCOc1ccc(C(=O)c2cc3cc(C)n(CCN4CCOCC4)c3s2)c(Cl)c1 [Compound 126, (2-chloro-4-ethoxyphenyl)(5-methyl-6-(2-morpholinoethyl)-6H-thieno[2,3-b]pyrrol-2-yl)methanone] | 1000 to 10000 | < 100 |  |  | 1000 to 10000
Cc1cc2cc(C(=O)c3ccc(C#N)cc3)sc2n1CCN1CCOCC1 [Compound 129, 4-(5-methyl-6-(2-morpholinoethyl)-6H-thieno[2,3-b]pyrrole-2-carbonyl)benzonitrile] |  | 100 to 1000 | NS (NS means “Not Significant,” which means less than 30% agonist activity when compared to the positive control.) |  | 
COc1cc(F)ccc1C(=O)c1cc2cc(C)n(CCN3CCOCC3)c2s1 [Compound 133, (4-fluoro-2-methoxyphenyl)(5-methyl-6-(2-morpholinoethyl)-6H-thieno[2,3-b]pyrrol-2-yl)methanone] |  | < 100 |  |  | 100 to 1000
Cc1cc2cc(C(=O)c3ccc(F)cc3F)sc2n1CCN1CCOCC1 [Compound 135, (2,4-difluorophenyl)(5-methyl-6-(2-morpholinoethyl)-6H-thieno[2,3-b]pyrrol-2-yl)methanone] |  | < 100 | NS (NS means “Not Significant,” which means less than 30% agonist activity when compared to the positive control.) |  | 
COc1ccc(C(=O)c2cc3cc(C)n(CCN4CCOCC4)c3s2)c(C)n1 [Compound 136, (6-methoxy-2-methylpyridin-3-yl)(5-methyl-6-(2-morpholinoethyl)-6H-thieno[2,3-b]pyrrol-2-yl)methanone] |  | < 100 | NS (NS means “Not Significant,” which means less than 30% agonist activity when compared to the positive control.) |  | 
COc1ccc(C(O)(c2cc3cc(C)n(CCN4CCOCC4)c3s2)C(F)(F)F)cc1 (centres unmarked) [Compound 138, 2,2,2-trifluoro-1-(4-methoxyphenyl)-1-(5-methyl-6-(2-morpholinoethyl)-6H-thieno[2,3-b]pyrrol-2-yl)ethanol] |  | < 100 | NS (NS means “Not Significant,” which means less than 30% agonist activity when compared to the positive control.) |  | 
COc1ccc(C(=O)c2cc3cc(C)n(S(=O)(=O)CCN4CCOCC4)c3s2)cc1 [Compound 139, (4-methoxyphenyl)(5-methyl-6-(2-morpholinoethylsulfonyl)-6H-thieno[2,3-b]pyrrol-2-yl)methanone] | 100 to 1000 | < 100 |  |  | 100 to 1000
COc1ccc(C(c2cc3cc(C)n(CCN4CCOCC4)c3s2)C(F)(F)F)cc1 (centres unmarked) [Compound 141, 4-(2-(5-methyl-2-(2,2,2-trifluoro-1-(4-methoxyphenyl)ethyl)-6H-thieno[2,3-b]pyrrol-6-yl)ethyl)morpholine] |  | < 100 | NS (NS means “Not Significant,” which means less than 30% agonist activity when compared to the positive control.) |  | 
COc1ccc(C(=O)c2cc3cc(C)n(CCN4CCC(OC)C4)c3s2)cn1 (centres unmarked) [Compound 147, (6-methoxypyridin-3-yl)(6-(2-(3-methoxypyrrolidin-1-yl)ethyl)-5-methyl-6H-thieno[2,3-b]pyrrol-2-yl)methanone] |  | 100 to 1000 | NS (NS means “Not Significant,” which means less than 30% agonist activity when compared to the positive control.) |  | 
